Assay results as given in paper PMC6104039 (Nature Communications, 2018).
Several values for one entry are separate records, joined by “and”; a condition that tells them apart may be missing. Equal entries are not always repeated. Entries after “also recorded” stand apart in the source; their conditions may differ.

How the values were obtained:
[1] = test system: cerebellum; test: Ceramide, SM and HexCer levels in cerebellum; type: in vivo, mice;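 for Cer 18:1/24:1 content of cerebellum: pmol per mg cerebellum tissue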;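 for Cer 18:2/18:0 content of cerebellum: pmol per mg cerebellum tissue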;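 for HexCer 18:1 content of cerebellum: pmol per mg cerebellum tissue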;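 for HexCer 20:1 content of cerebellum: pmol per mg cerebellum tissue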;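 for HexCer 22:1 content of cerebellum: pmol per mg cerebellum tissue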;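 for HexCer 24:0 content of cerebellum: pmol per mg cerebellum tissue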;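 for SM 32:1 content of cerebellum: pmol per mg cerebellum tissue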;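 for SM 34:2 content of cerebellum: pmol per mg cerebellum tissue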;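 for SM 36:1 content of cerebellum: pmol per mg cerebellum tissue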;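 for SM 36:2 content of cerebellum: pmol per mg cerebellum tissue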;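 for SM 40:1 content of cerebellum: pmol per mg cerebellum tissue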;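 for SM 40:2 content of cerebellum: pmol per mg cerebellum tissue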;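 for SM 42:1 content of cerebellum: pmol per mg cerebellum tissue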;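 for SM 42:2 content of cerebellum: pmol per mg cerebellum tissue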
Excerpt: Supplementary Figure 7. […] Ceramide, SM, and HexCer […]
levels in the cerebellum of vehicle- or P053-treated mice on a chow or HFD. N = 10 mice per group, except for chow vehicle group (n = 9). Mean ± SEM shown. No lipids were […]
comparisons. C18:0 HexCer was 45% lower in the P053-treated compared to the vehicle-treated HFD group (unadjusted P value = 0.02; adjusted value P = 0.16). Raw data for these figures is provided in Supplementary Data File 1.

[2] = test system: C57BL6/J mice; test: Food intake; conditions: mouse, in vivo
[3] = test system: HEK293 cells; test: Detection of the phosphate of the compound in cultured cells, LC-MS/MS; type: in vitro ADME; conditions: 1 µM, 2 h
Experimental: LC-MS/MS was performed on a TSQ Quantum Access triple quadrupole mass spectrometer in positive ion mode, coupled to an Accela UPLC system (Thermo Scientific). Extracts (20 μL) were separated on a 2 × 100 mm Eclipse XDB-C8 column with 1.8 μm particle size (Agilent Technologies), using a 7.5 min binary HPLC gradient: 0 min, 70% B ([…]); 1.5 min, 70% B; 3.5 min, 95% B; 4 min, 95% B; 4.5 min, 70% B; 7.5 min 70% B. Mobile phase A: 2 mM ammonium formate/1% formic acid in water; mobile phase B: 1 mM ammonium formate/1% formic acid in methanol. The flow rate was 0.4 mL min^−1, increasing to 0.5 mL min^−1 from 5–7 min, and column oven 30 °C. […] Visualisation and quantification of peaks was performed using Thermo Fisher’s XCalibur software v2.2.
Supplementary Figure 8. P053 is not phosphorylated in situ or in vivo. (a-b) HEK293 cells […]
LC-MS/MS analysis. Chromatograms for (a) FTY720 and its phosphate, and (b) P053 and its putative phosphate are shown. […]
mg/kg/day for 6 weeks, corresponding to a plasma concentration of ~300 nM. No peak is […]
(§1) (1 picture or pasted object on this page, not shown here)

[4] = test system: SkM; test: Western blotting of SkM (respiratory complex subunits, PGC-1α, AMPK, ACC); type: in vivo, mice
Experimental: Tissues were homogenized in RIPA buffer (100 mM NaCl, 10 mM Tris, pH 7.4, 1% Triton X-100, 0.5% sodium deoxycholate, 0.1% SDS, 1 mM EDTA, 10% Glycerol) containing complete protease inhibitor cocktail (Roche) and phosphatase inhibitors (3 mM β-glycerophosphate, 1 mM sodium orthovanadate, 5 mM sodium fluoride) by bead-beating in a Precellys 24 at 4 °C. Extracts were centrifuged at 6500 rpm for 10 min at 4 °C. Supernatant was collected and protein concentrations determined with the Bicinchoninic acid (BCA) assay (Thermo Scientific). Protein lysates (15 μg) were resolved on SDS-PAGE, transferred to polyvinylidene difluoride (PVDF) membrane, and immunoblotted with antibodies against Complex I subunit NADH dehydrogenase (#ab110242, Abcam), Complex II succinate dehydrogenase subunit B (#ab14714, Abcam), Complex III subunit Core 2 Ubiquinol-cytochrome c reductase (#ab14745, Abcam), Complex IV Cytochrome c oxidase (#11967S, Cell Signaling Technology), Complex V ATP synthase α subunit (#ab14748, Abcam), PGC1α (#AB3242, Merck Millipore), AMPKα (#2532S, Cell Signaling Technology), phospho- AMPKα (Thr172) (#2535S, Cell Signaling Technology), ACC (#3662S, Cell Signaling Technology), phospho-ACC (Ser 79, which also detects Ser 212 in ACC2, the predominant ACC isoform in SkM) (#3661S, Cell Signaling Technology) and pan 14-3-3 (#sc-629, Santa Cruz Biotechnology). All antibodies were used at a dilution of 1:1000. A common loading control was included on every gel to account for variation in relative band intensities between different blots. Antibody-antigen binding was detected using ECL Reagent (GE Healthcare) and imaged on a Fujifilm Las-4000 CCD camera. Bands were quantified by densitometry with Fuji ImageQuantTL software. Full images of blots in Fig. 6 are shown in Supplementary Figure 12.
Western blots for phospho-AMPK (Thr172), total AMPK, phospho-ACC (Ser79), and total
ACC in vehicle- or P053-treated mice on a chow or HFD. Denistometry for phospho-
AMPK/total AMPK and phospho-ACC/total ACC is shown (n = 10 mice per group).
as §1

[5] = test system: liver; test: Mitochondrial markers in liver (Western blots, citrate synthase, βHAD); design: species or system mice; conditions: mouse, in vivo
Experimental: Tissues were homogenized in RIPA buffer (100 mM NaCl, 10 mM Tris, pH 7.4, 1% Triton X-100, 0.5% sodium deoxycholate, 0.1% SDS, 1 mM EDTA, 10% Glycerol) containing complete protease inhibitor cocktail (Roche) and phosphatase inhibitors (3 mM β-glycerophosphate, 1 mM sodium orthovanadate, 5 mM sodium fluoride) by bead-beating in a Precellys 24 at 4 °C. Extracts were centrifuged at 6500 rpm for 10 min at 4 °C. Supernatant was collected and protein concentrations determined with the Bicinchoninic acid (BCA) assay (Thermo Scientific). […] All antibodies were used at a dilution of 1:1000. A common loading control was included on every gel to account for variation in relative band intensities between different blots. Antibody-antigen binding was detected using ECL Reagent (GE Healthcare) and imaged on a Fujifilm Las-4000 CCD camera. Bands were quantified by densitometry with Fuji ImageQuantTL software.
Liver and tibialis muscle were homogenized 1:19 (w/v) in 50 mM Tris-HCl, 1 mM EDTA, 0.1% Triton X-100, pH 7.4. The homogenates were subjected to three freeze-thaw cycles and centrifuged for 10 min at 7000 × g at 4 °C. Supernatants were used to determine the activity of CS and βHAD[66].

[6] = test system: cortical neuron cultures; test: Live-cell ceramide synthase assay: deuterated ceramide from D7-dihydrosphingosine; conditions: two hour pre-treatment
Experimental: Mouse cortical neurons were prepared from E16 pups[65] and seeded at 5 × 10^6 cells/well in poly-D-lysine coated six-well plates. Two weeks after seeding, neurons were pre-treated for 2 h with P053, then incubated for a further 1 h with 1 μM deuterated dihydrosphingosine (D7-dhSph). Lipid extraction and quantification of D7-ceramide using liquid chromatography-tandem mass spectrometry (LC-MS/MS)[34] is described below.
Targeted quantification of ceramide, HexCer, and SM species in primary neurons, HEK293 cells, mouse brain, and gastrocnemius muscle lipid extracts was performed by LC-MS/MS on a TSQ Access triple quadrupole mass spectrometer (Thermo Fisher Scientific)[69]. Lipids were separated on a 3 × 150 mm Agilent XDB-C8 column (5 μM pore size) with a 10 min isocratic chromatography run using methanol containing 0.2% formic acid as the mobile phase. Precursor ions were the precise [M + H] species for each lipid. […] Deuterated (D7) ceramides were detected as the corresponding m/z + 7 ions.

[7] = test system: PPAR alpha; test: PMP70 protein expression in liver lysates (PPAR alpha agonism); type: in vivo, mice
Excerpt: For PPAR alpha we have examined the protein expression of
PMP70 (an abundant peroxisomal m embrane protein) in liver lysates, as PPAR alpha is much more
highly expressed in liver and we have clear evidence (Supplementary Fig 6) that P053 distributes
into liver at levels that are higher that those present in skeletal muscle.
treated with a known PPAR alpha agonist WY14643 (WY) vs. vehicle (veh) controls shown on the
right of the gel as positive controls.

[8] = HFD + P053, individual mice, raw data for Supplementary Figure 7

`C[C@@](N)(CO)CCc1ccc(OCc2ccc(Cl)c(Cl)c2)cc1` [P053, (S)-2-amino-4-(4-(3,4-dichlorobenzyloxy)phenyl)-2-methylbutan-1-ol] was tested, and the “Cer 18:1/24:1 content of cerebellum” value [1, 8] was 97.7004 and 105.297 and 370.02 and 145.116 and 239.743 and 56.9618 and 60.5027 and 471.673 and 50.6294 and 252.902, the “Cer 18:2/18:0 content of cerebellum” value [1, 8] was 5.2575 and 7.26 and 15.0915 and 8.468 and 10.666 and 4.461 and 4.156 and 21.6288 and 3.082 and 13.66 and the “HexCer 16:0 content of cerebellum” value [1, 8] was 8.934 and 17.284 and 8.364 and 13.8417 and 14.6417 and 7.1271 and 5.255 and 9.259 and 5.878 and 7.654. The “HexCer 18:0 content of cerebellum” value [1, 8] was 106.702 and 382.139 and 122.466 and 271.752 and 258.221 and 146.382 and 115.813 and 146.018 and 61.4581 and 111.285, the “HexCer 18:1 content of cerebellum” value [1, 8] was 19.0333 and 51.9273 and 16.2259 and 33.0148 and 32.5326 and 25.3913 and 23.9698 and 16.5527 and 15.5439 and 16.7312 and the “HexCer 20:0 content of cerebellum” value [1, 8] was 25.9921 and 81.8108 and 22.9498 and 52.8818 and 49.4884 and 37.7023 and 27.8092 and 23.4231 and 13.0014 and 19.1491. The “HexCer 20:1 content of cerebellum” value [1, 8] was 2.413 and 5.45 and 1.502 and 2.714 and 3.093 and 3.36 and 3.204 and 0.8678 and 1.872 and 1.364, the “HexCer 22:0 content of cerebellum” value [1, 8] was 505.659 and 1204.39 and 420.547 and 840.893 and 660.332 and 669.272 and 501.784 and 427.814 and 264.729 and 391.884 and the “HexCer 22:1 content of cerebellum” value [1, 8] was 79.5132 and 228.816 and 78.1356 and 158.552 and 150.676 and 92.9587 and 63.0534 and 66.2392 and 42.1951 and 49.044. The “HexCer 24:0 content of cerebellum” value [1, 8] was 2652.92 and 5943.48 and 2280.7 and 4343.65 and 3299.69 and 3289.82 and 2658.72 and 2324.32 and 1408.65 and 2090.2, the “HexCer 24:1 content of cerebellum” value [1, 8] was 5027.14 and 9363.75 and 4512.26 and 7271.57 and 6673.35 and 6052.94 and 5424.24 and 3829.42 and 3500.76 and 3500.55 and the “SM 32:1 content of cerebellum” value [1, 8] was 9.976 and 12.4114 and 9.047 and 10.2584 and 10.5601 and 10.6625 and 8.862 and 9.432 and 8.153 and 9.013. For the same compound, the “SM 34:1 content of cerebellum” value [1, 8] was 133.106 and 161.415 and 90.4808 and 115.694 and 117.777 and 135.794 and 123.089 and 72.6388 and 98.8077 and 73.1632, the “SM 34:2 content of cerebellum” value [1, 8] was 5.986 and 10.8404 and 8.948 and 9.3676 and 9.279 and 9.028 and 5.849 and 7.187 and 3.938 and 7.222 and the “SM 36:1 content of cerebellum” value [1, 8] was 437.801 and 529.096 and 247.962 and 355.417 and 343.012 and 490.447 and 544.072 and 175.073 and 405.398 and 201.504. For the same compound, the “SM 36:2 content of cerebellum” value [1, 8] was 35.911 and 106.46 and 51.4739 and 67.513 and 67.8953 and 51.6927 and 57.9458 and 40.9288 and 32.7758 and 44.6146, the “SM 38:1 content of cerebellum” value [1, 8] was 151.251 and 204.797 and 99.8821 and 137.133 and 146.282 and 182.882 and 197.347 and 79.7159 and 145.438 and 91.2461 and the “SM 38:2 content of cerebellum” value [1, 8] was 6.1474 and 11.1901 and 6.7471 and 8.325 and 8.851 and 10.1186 and 6.052 and 4.124 and 3.938 and 4.099. The “SM 40:1 content of cerebellum” value [1, 8] was 183.889 and 372.913 and 177.074 and 235.958 and 281.655 and 224.359 and 174.632 and 162.333 and 129.812 and 151.975, the “SM 40:2 content of cerebellum” value [1, 8] was 54.9137 and 116.436 and 59.8853 and 73.425 and 86.9536 and 64.465 and 34.4644 and 47.3579 and 33.4194 and 39.329 and the “SM 42:1 content of cerebellum” value [1, 8] was 210.79 and 460.407 and 223.848 and 278.666 and 328.3 and 236.404 and 186.283 and 198.576 and 131.683 and 195.129. For the same compound, the “SM 42:2 content of cerebellum” value [1, 8] was 687.51 and 1423.11 and 718.618 and 898.145 and 1023.47 and 688.732 and 582.437 and 593.074 and 472.141 and 503.36, the “C18:0 HexCer in cerebellum, lower than vehicle” value ([1]; HFD group, adjusted P = 0.16) was 45% and the “C18 ceramide or SM levels in cerebellum” value ([1]; chow or HFD) was “did not affect”. The food intake [2] was “not due to any effect of P053 on food intake”, the “phosphate of the compound in cultured HEK293 cells” value [3] was “only background signal; also recorded: not detected” and the “phosphorylation of AMPK or acetyl-CoA carboxylase (ACC)” value [4] was “no effect”. For the same compound, the “protein expression of Pgc-1α” value [4] was “significantly increased”, the “respiratory complexes at the protein level” value [4] was “up-regulated” and the “mitochondrial markers in liver” value [5] was “no increase”. The “de novo C18:0 ceramide synthesis from deuterated dihydrosphingosine” value [6] was “dose-dependent inhibition” and the “expression of PMP70” value [7] was “unaffected”.
